Here are results for 6 molecules from publication PMC7901646, “Pyrrolo[2′,3′:3,4]cyclohepta[1,2-d][1,2]oxazoles, a New Class of Antimitotic Agents Active against Multiple Malignant Cell Types” (Journal of Medicinal Chemistry, 2020).

Holding throughout (type): cell-based
Experiment [1] concerns human peripheral blood lymphocytes not stimulated with PHA. Description: Cytotoxicity in resting PBLs (MTT). The conditions noted are these: Lymphocyte, 72 h, mean ± SEM, three experiments, read-out: GI50 PBLresting. The method, then: PBLs were obtained from human peripheral blood (leucocyte rich plasma-buffy coats) from healthy volunteers using the Lymphoprep (Fresenius KABI Norge AS) gradient density centrifugation.
After extensive washing, cells were resuspended (1.0 × 10^6 cells/mL) in RPMI-1640 with 10% fetal bovine serum and incubated overnight. For cytotoxicity evaluations in proliferating PBL cultures, nonadherent cells were resuspended at 5 × 10^5 cells/mL in growth medium, containing 2.5 μg/mL PHA (Irvine Scientific). Different concentrations of the test compounds were added, and viability was determined 72 h later by the MTT test. For cytotoxicity evaluations in resting PBL cultures, nonadherent cells were resuspended (5 × 10^5 cells/mL) and treated for 72 h with the test compounds.

Experiment [2] has as its system UACC-257. Briefly: NCI-60 screen. The conditions noted are these: Homo sapiens, Melanoma. An outline of the steps: (§1)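 Each compound is applied at one concentration, 10^–5 M, to the nine-tissue NCI-60 human cancer cell line panel, and growth-inhibitory activity is recorded per line.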
Experiment [3] relates to HOP-92. Briefly: NCI-60 screen. As to conditions: Homo sapiens, Non-Small-Cell Lung Cancer. An outline of the steps: as §1
Experiment [4] concerns SNB-75. Briefly: NCI-60 screen. The conditions noted are these: Homo sapiens, CNS Cancer. An outline of the steps: as §1
Experiment [5] concerns SK-MEL-28. Description: NCI-60 screen. The conditions noted are these: Homo sapiens, Melanoma. An outline of the steps:
as §1

Experiment [6] deals with OVCAR-4. Description: NCI-60 screen. The conditions noted are these: Homo sapiens, Ovarian Cancer. As for the experimental part:
All the synthesized compounds 51–76 were tested at a 10^–5 M concentration for their antitumor activity on the full NCI-60 panel comprising cancer cell lines derived from nine human cancer cell types (leukemia, non-small-cell lung, colon, central nervous system, melanoma, ovarian, renal, prostate, and breast).[50]

Experiment [7] deals with UO-31. Briefly: NCI-60 screen. The conditions noted are these: Homo sapiens, Renal Cancer. Summed up: as §1
For experiment [8], the system named is SF-539. Description: NCI-60 screen. The conditions noted are these: Homo sapiens, CNS Cancer. An outline of the steps: as §1
Experiment [9] concerns RXF 393. Briefly: NCI-60 screen. The conditions noted are these: Homo sapiens, Renal Cancer. An outline of the steps: as §1
For experiment [10], the system named is A549/ATCC. Briefly: NCI-60 screen. The conditions noted are these: Homo sapiens, Non-Small-Cell Lung Cancer. An outline of the steps:
as §1

For experiment [11], the system named is 786–0. Description: NCI-60 screen. The conditions noted are these: Homo sapiens, Renal Cancer. An outline of the steps:
as §1

Experiment [12] deals with MDA-MB-468. Briefly: NCI-60 screen. The conditions noted are these: Homo sapiens, Breast Cancer. Summed up: as §1
The subject of experiment [13] is BT-549. Description: NCI-60 screen. The conditions noted are these: Homo sapiens, Breast Cancer. Summed up: as §1
In experiment [14] the test system is NCI-H23. Description: NCI-60 screen. As to conditions: Homo sapiens, Non-Small-Cell Lung Cancer. Summed up:
as §1

For experiment [15], the system named is NCI-H322M. Briefly: NCI-60 screen. As to conditions: Homo sapiens, Non-Small-Cell Lung Cancer. Summed up:
as §1

Experiment [16] deals with HeLa cells. Description: Mitochondrial membrane potential (JC-1). As to conditions: 0.1 and 0.5 μM, 24 or 48 h. As for the experimental part: The mitochondrial membrane potential was measured with the lipophilic cationic dye 5,5′,6,6′ tetrachlo-1,1′,3,3′-tetraethylbenzimidazolcarbocyanine (JC-1) (Molecular Probes), as described.[73] The method is based on the ability of this fluorescent probe to enter selectively into mitochondria since it changes reversibly its color from green to red as membrane potential increases. This property is due to the reversible formation of JC-1 aggregates upon membrane polarization that causes a shift in the emitted light from 530 nm (i.e., emission of JC-1 monomeric form) to 590 nm (emission of JC-1-aggregate) when excited at 490 nm.

Experiment [17] concerns XIAP. Description: Western blot, apoptosis proteins. As to conditions: HeLa. As for the experimental part: (§2) To study in greater detail the apoptotic process induced by 66, we evaluated the expression of the cleaved fragment of poly(ADP)ribose polymerase (PARP), a common marker of apoptosis,[66] by Western blot analysis. HeLa cells were treated with compound 66 at 0.1 or 0.5 μM for 24 or 48 h. The cleavage fragment of PARP appeared at 24 h after beginning treatment with only 0.1 μM 66. The expression of two antiapoptotic proteins, Mcl-1 and XIAP, was also studied. Mcl-1, a member of the Bcl-2 family, is highly expressed in many types of tumors and takes part in the apoptotic response to multiple stimuli. […] Similarly, expression of Xiap, a member of the family of inhibitors of apoptosis proteins, was reduced (at 24 h) and diappeared (at 48 h) after HeLa cell treatment with 66 (Figure 9). The functions of this protein are to inhibit the activity of caspase-3, caspase-7, and caspase-9 through a direct interaction with these enzymes. Following this interaction, the entire apoptotic process is inhibited.[69]
(§3) HeLa cells were incubated in the presence of the test compound and, after different times, were collected, centrifuged, and washed two times with ice cold PBS. The pellet was resuspended in lysis buffer. After the cells were lysed on ice for 30 min, lysates were centrifuged at 15 000g at 4 °C for 10 min. The protein concentration in the supernatant was determined using the BCA protein assay reagents (Pierce, Italy). Equal amounts of protein (10 μg) were resolved using sodium dodecyl sulfate–polyacrylamide gel electrophoresis (Criterion Precast, BioRad, Italy) and transferred to a PVDF Hybond-P membrane (GE Healthcare). Membranes were blocked with a bovine serum albumin solution (5% in Tween PBS 1×), and the membranes were gently rotated overnight at 4 °C in the albumin solution. Membranes were then incubated with primary antibodies against PARP cleaved fragment, cdc25c, cyclin B, p-cdc2^Tyr15, XIAP, and Mcl-1 (all from Cell Signaling) or GAPDH (Sigma-Aldrich) for 2 h at room temperature. Membranes were next incubated with peroxidase labeled secondary antibodies for 1 h. All membranes were visualized using ECL Select (GE Healthcare), and images were acquired using an Uvitec-Alliance imaging system (Uvitec, Cambridge, U.K.). To ensure equal protein loading, each membrane was stripped and reprobed with anti-GAPDH antibody. To obtain relative quantitative data, ImageJ software (NIH, USA) was used for scanning densitometry analysis of Western blots.

Experiment [18] has as its system Mcl-1. Description: Western blot, apoptosis proteins. The conditions noted are these: HeLa, 0.1 or 0.5 μM, 24 or 48 h. As for the experimental part:
as §2, §3
On the technique in general: A western blot detects proteins with antibodies after separation by electrophoresis.

Experiment [19] deals with PARP. Description: Western blot, apoptosis proteins. As to conditions: HeLa, 24 h, 0.1 μM. The method, then: as §2, §3

Where only a bound is given, the exact number is not on record here.

As to `CCOC(=O)c1cc2c(n1Cc1cccc(OC)c1)-c1oncc1CCC2` [Compound 63, Ethyl 9-(3-Methoxybenzyl)-4,5,6,9-tetrahydropyrrolo[2′,3′:3,4]cyclohepta[1,2-d][1,2]oxazole-8-carboxylate], the GI50 (commonly the concentration that inhibits growth by half) in experiment [1] was more than 100000 nM; in experiment [2], 7610 nM; in experiment [3] it was 4210 nM; in experiment [4], 1600 nM; in experiment [5], 5120 nM; in experiment [6], 18700 nM. The GI50 in experiment [7] came to 3370 nM; in experiment [8] it was 1140 nM; in [9], 670 nM; in experiment [10] it was 760 nM; in [11] it was 6740 nM; in experiment [12], 340 nM. Further, the GI50 in [13] worked out at 980 nM.

As for `CCOC(=O)c1c(Cl)c2c(n1Cc1cc(OC)cc(OC)c1)-c1oncc1CCC2` [Compound 75, Ethyl 7-Chloro-9-(3,5-dimethoxybenzyl)-4,5,6,9-tetrahydropyrrolo[2′,3′:3,4]cyclohepta[1,2-d][1,2]oxazole-8-carboxylate], the GI50 was more than 100000 nM in experiment [1]; 680 nM in [14]; 460 nM in experiment [3]; 220 nM in experiment [4]; 660 nM in experiment [5]; 850 nM in experiment [6]. For the same molecule, the GI50 came out at 780 nM in experiment [7]; 510 nM in experiment [15]; 240 nM in experiment [8]; 250 nM in experiment [9]; 4240 nM in [11]; 730 nM in experiment [12]. This molecule yielded a GI50 in [13] of 27000 nM.

For `CCOC(=O)c1cc2c(n1Cc1cc(OC)cc(OC)c1)-c1oncc1CCC2` [Compound 66, Ethyl 9-(3,5-Dimethoxybenzyl)-4,5,6,9-tetrahydropyrrolo[2′,3′:3,4]cyclohepta[1,2-d][1,2]oxazole-8-carboxylate], the “percentage of cells with low Δψmt” value in experiment [16] is recorded as “significant increase”. The “expression of Xiap” value in [17] (24 h) is “reduced”; in experiment [17] (48 h) it was “diappeared”. Moreover, the Mcl-1 levels result in experiment [18] is “reduction”. Moreover, the “cleavage fragment of PARP” value in experiment [19] is “appeared”. Besides, the concentration for 50% growth inhibition (GI50) in experiment [1] is more than 100000 nM; in [4], 30 nM; in experiment [5] it was 90 nM; in experiment [6] it was 13400 nM; in [7], 50 nM; in [8] it was 30 nM. Moreover, the GI50 turned out to be 20 nM in experiment [9]; 60 nM in experiment [10]; 50 nM in experiment [11]; 30 nM in [12]; 1720 nM in [13].

With `CCOC(=O)c1cc2c(n1Cc1ccccc1OC)-c1oncc1CCC2` [Compound 62, Ethyl 9-(2-Methoxybenzyl)-4,5,6,9-tetrahydropyrrolo[2′,3′:3,4]cyclohepta[1,2-d][1,2]oxazole-8-carboxylate], the 50% growth inhibitory concentration (GI50) in experiment [14] is 8520 nM; in experiment [3], 300 nM; in experiment [4], 1970 nM; in experiment [5], more than 100000 nM; in [6], 9350 nM; in experiment [7], 6530 nM. Further, the GI50 in [15] is 5230 nM; in experiment [8] it was 2480 nM; in experiment [9], 2080 nM; in [11], more than 100000 nM; in experiment [12], 2950 nM; in [13], 7730 nM.

Regarding `CCOC(=O)c1cc2c(n1Cc1cc(OC)c(OC)c(OC)c1)-c1oncc1CCC2` [Compound 67, Ethyl 9-(3,4,5-Trimethoxybenzyl)-4,5,6,9-tetrahydropyrrolo[2′,3′:3,4]cyclohepta[1,2-d][1,2]oxazole-8-carboxylate], the GI50 in experiment [14] was 370 nM; in experiment [4], 70 nM; in [5], 300 nM; in experiment [6] it was 720 nM; in experiment [7], 80 nM; in experiment [15], 320 nM. The GI50 in [8] was 120 nM; in [9], 120 nM; in [11], 970 nM; in [12] it was 740 nM; in experiment [13] it was 290 nM.

Regarding `CCOC(=O)c1c(Cl)c2c(n1Cc1ccccc1)-c1oncc1CCC2` [Compound 70, Ethyl 7-Chloro-9-benzyl-4,5,6,9-tetrahydropyrrolo[2′,3′:3,4]cyclohepta[1,2-d][1,2]oxazole-8-carboxylate], the GI50 in experiment [15] was more than 100000 nM.
